Measurements reported in patent US20110152343A1, “PROTEASE INHIBITORS AND BROAD-SPECTRUM ANTIVIRAL” (Functional Genetics, Inc., priority 2009, published 2011).

Test system: RSV
Experiment: RSV infection, timing of administration (production of virus particles)

Structure (SMILES): N=C(N)c1ccc2oc(/C=C/c3nc4ccc(C(=N)N)cc4[nH]3)cc2c1 [NSC 369723]
- inhibition of the production of virus particles (pfu/ml) (administration by roughly 18 hours after infection with RSV): much reduced or lost
- inhibition of the production of virus particles (pfu/ml) (administration from about 6-12 hours after infection with RSV): moderately inhibited
